According to publication PMC3308910 (2012):

Legend:
[1] = biological target: cytochrome bc1 complex (ubiquinol:cytochrome c oxidoreductase; respiratory complex III) (Homo sapiens, UniProt P00156); assay type: biochemical
[2] = biological target: T1, cytochrome bc1 complex (ubiquinol:cytochrome c oxidoreductase; respiratory complex III) (Plasmodium falciparum, UniProt Q02768); assay type: biochemical
T1 sequence (Q02768 1-376): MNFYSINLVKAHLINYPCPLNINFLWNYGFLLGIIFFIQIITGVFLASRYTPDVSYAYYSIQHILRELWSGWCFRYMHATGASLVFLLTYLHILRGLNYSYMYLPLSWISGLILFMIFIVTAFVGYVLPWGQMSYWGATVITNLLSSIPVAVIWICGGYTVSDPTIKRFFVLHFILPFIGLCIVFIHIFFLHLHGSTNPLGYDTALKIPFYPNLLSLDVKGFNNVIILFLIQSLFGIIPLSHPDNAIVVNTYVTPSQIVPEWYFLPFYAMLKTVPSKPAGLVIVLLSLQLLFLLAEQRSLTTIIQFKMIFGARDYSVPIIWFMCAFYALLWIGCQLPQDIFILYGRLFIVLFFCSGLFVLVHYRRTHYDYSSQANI

cytochrome bc1 complex (ubiquinol:cytochrome c oxidoreductase; respiratory complex III) (Homo sapiens, UniProt P00156), sequence (P00156 whole entry, one chain of several): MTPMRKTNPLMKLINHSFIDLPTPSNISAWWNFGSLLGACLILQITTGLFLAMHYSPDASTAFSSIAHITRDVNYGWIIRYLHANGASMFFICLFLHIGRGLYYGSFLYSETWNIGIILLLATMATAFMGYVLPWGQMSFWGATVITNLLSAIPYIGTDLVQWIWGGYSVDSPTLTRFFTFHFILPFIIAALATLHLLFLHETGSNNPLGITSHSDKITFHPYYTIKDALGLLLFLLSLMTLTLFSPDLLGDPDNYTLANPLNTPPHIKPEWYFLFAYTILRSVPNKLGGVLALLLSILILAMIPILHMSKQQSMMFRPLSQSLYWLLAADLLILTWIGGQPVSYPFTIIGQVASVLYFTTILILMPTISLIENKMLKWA

Row | SMILES | IC50 [1] [nM] | IC50 [2] [nM]
1 | O=C1C(O)=C([C@H]2CC[C@H](c3ccc(Cl)cc3)CC2)C(=O)c2ccccc21 [Atovaquone] | 327 ± 30 | 
2 | CCCCCCCCCCOc1cc2c(O)c(C(=O)OCC)cnc2cc1OCC [Decoquinate] |  | 2 ± 0.5
